Columns and labels:
MDA-MB-436 = assay: Cell Titer-Glo viability, Breast adenocarcinoma; assay type: cell-based
Protocol: (§1) OGM2 kills wide variety of cancer cell types. Cell sensitivity can be classified in to Very Sensitive (LC50<2 μM), Sensitive (LC50=2 to 10 μM), Mildly Sensitive (LC50>10 μM), and Refractory (no killing at 10 μM). The listed established cell were incubated with OGM2 at 2 μM or 10 μM for 72 hours under standard cell culture conditions, and relative cell number was assessed using Cell Titer-Glo Luminescent Cell Viability Assay (Promega™) following the manufacturer's instructions. Luminescence was determined using a Cytation 5 reader and Gen5 software package (BioTek™).
(§2) Cancer cells, which are very sensitive to killing by OGM2 (LCs <2 μM), with reported mRNA expression of GPR68 and the related proton sensing receptor GPR4. LC50's (concentrations causing 50% lethality) were determined using CellTiter-Glo (Promega™, G7570). Cells were plated in 12-well plates (CELLTREAT Scientific Products, 229112) in 1 ml of DMEM with high glucose, GlutaMAX, HEPES, or RPMI 1640 with Penicillin-Streptomycin (ThermoFisher™, 10564029, 11875119 and 15140122) and 10% FBS. Cells were incubated overnight at 37° C. in 5% CO2. Then 1 mL of fresh media was added with DMSO, OGM, or positive control (Erastin; APExBIO Technology, LLC, B1524) and cells incubated for 3 days. On the third day, all media was removed, cells were rinsed with 1×PBS, PBS was removed, and 200 μL of 1× Passive Lysis Buffer (Promega™, E1941) was added to each well. […]. Subsequently, 20 μL of lysate was added to 100 μL CellTiter-Glo™ reagent on a LUMITRAC 200 plate (Greiner™ bio-one, 82050-726). Plates were briefly spun down and read on a GloMax-Multi Detection System (Promega™).
(§3) The cells listed in the tables above were incubated with OGM2 at 2 μM or 10 μM for 72 hours under standard cell culture conditions, and relative cell number was assessed using Cell Titer-Glo Luminescent Cell Viability Assay (Promega™) following the manufacturer's instructions. Luminescence was determined using a Cytation 5 reader and Gen5 software package (BioTek™). RNA expression of GPR68 and GPR4 in the corresponding cancer cell lines are listed, according to the publicly available The Human Protein Atlas version 22.0 and Ensembl version 103.38 (see proteinatlas.org). The consensus normalized expression value (“nTPM”=normalize transcript per million) was calculated as the maximum nTPM value for each gene in the two data sources.

MCF7 = assay: Cell Titer-Glo viability, Breast adenocarcinoma; assay type: cell-based
Protocol: as §1, §2, §3

MDA-MB-231 = assay: Cell Titer-Glo viability, Breast adenocarcinoma; assay type: cell-based
Protocol: as §1, §2, §3

BB2 = molecular target: T1, BB2 (Homo sapiens, UniProt P30550); assay: GPCR Profiler; assay type: cell-based
T1 construct: host or cells: Chem-1 cells with promiscuous Gα15
T1 sequence (P30550 whole entry): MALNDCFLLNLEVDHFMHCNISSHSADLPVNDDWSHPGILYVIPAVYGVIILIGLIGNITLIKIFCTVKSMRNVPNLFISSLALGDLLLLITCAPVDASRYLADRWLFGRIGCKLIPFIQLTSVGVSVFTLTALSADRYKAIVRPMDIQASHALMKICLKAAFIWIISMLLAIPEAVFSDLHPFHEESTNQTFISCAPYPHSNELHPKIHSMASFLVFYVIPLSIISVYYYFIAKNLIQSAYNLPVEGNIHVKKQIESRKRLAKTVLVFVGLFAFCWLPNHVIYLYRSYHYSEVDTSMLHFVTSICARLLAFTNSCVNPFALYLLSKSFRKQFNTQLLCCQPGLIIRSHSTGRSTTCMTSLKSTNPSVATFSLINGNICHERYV

EGFR(L747-T751del, Sins) = molecular target: T2, EGFR(L747-T751del, Sins) (Homo sapiens, UniProt P00533, DEL747-750/T751S); assay: KinomeScan; assay type: binding; conditions: read-out: % Control
T2 construct: purchased DiscoveRx (Fremont, CA), KinomeScan service
T2 sequence (P00533 with tags, fused parts or gaps DEL747-750/T751S limits assumed): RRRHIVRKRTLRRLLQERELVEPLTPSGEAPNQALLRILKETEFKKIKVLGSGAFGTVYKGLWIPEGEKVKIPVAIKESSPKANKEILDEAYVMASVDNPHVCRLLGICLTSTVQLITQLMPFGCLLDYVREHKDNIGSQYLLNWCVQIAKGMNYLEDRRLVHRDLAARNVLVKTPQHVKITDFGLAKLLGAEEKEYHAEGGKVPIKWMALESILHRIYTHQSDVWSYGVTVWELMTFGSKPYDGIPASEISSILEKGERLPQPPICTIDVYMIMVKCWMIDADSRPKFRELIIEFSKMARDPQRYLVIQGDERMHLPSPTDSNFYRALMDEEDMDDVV

PRKX = molecular target: T3, PRKX (Homo sapiens, UniProt P51817); assay: KinomeScan; assay type: binding; conditions: read-out: % Control
T3 construct: purchased DiscoveRx (Fremont, CA)
T3 sequence (P51817 whole entry): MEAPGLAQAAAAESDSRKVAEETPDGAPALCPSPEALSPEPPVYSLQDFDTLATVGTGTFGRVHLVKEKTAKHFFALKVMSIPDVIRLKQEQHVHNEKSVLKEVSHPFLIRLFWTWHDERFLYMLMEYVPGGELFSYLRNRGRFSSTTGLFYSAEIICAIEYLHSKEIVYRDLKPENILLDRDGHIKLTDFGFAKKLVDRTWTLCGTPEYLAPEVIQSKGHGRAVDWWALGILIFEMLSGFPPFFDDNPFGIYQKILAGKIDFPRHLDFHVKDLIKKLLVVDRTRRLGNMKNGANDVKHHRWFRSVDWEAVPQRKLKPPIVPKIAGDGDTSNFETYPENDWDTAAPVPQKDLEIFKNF

KIT(A829P) = molecular target: T4, KIT(A829P) (Homo sapiens, UniProt P10721, A829P); assay: KinomeScan; assay type: binding; conditions: read-out: % Control
T4 construct: purchased DiscoveRx
T4 sequence (P10721 26-976 A829P): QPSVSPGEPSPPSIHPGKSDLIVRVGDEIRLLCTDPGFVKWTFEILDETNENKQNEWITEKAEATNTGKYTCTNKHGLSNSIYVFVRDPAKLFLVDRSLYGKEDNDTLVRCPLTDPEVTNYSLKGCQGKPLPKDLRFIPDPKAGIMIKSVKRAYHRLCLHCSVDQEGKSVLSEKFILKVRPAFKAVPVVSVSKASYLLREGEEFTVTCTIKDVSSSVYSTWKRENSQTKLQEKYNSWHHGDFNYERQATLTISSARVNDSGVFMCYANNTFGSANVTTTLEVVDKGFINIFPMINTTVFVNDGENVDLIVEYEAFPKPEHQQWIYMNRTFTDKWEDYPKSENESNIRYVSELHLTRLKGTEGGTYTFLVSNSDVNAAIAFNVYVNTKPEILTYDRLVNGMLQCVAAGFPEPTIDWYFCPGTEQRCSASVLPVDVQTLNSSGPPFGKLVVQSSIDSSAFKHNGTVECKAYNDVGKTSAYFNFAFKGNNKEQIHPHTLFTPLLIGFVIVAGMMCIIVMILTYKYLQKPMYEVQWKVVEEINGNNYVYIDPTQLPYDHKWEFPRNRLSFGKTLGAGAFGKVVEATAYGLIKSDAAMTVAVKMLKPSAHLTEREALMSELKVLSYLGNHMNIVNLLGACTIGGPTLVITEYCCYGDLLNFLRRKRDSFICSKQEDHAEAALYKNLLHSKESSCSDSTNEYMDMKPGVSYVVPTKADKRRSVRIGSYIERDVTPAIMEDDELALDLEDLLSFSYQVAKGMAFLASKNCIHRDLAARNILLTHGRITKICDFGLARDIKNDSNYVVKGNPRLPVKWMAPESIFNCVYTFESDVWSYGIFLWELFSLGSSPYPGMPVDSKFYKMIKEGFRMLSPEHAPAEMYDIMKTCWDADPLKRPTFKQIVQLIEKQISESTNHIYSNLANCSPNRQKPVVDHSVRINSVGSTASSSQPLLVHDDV

CCK1 = molecular target: T5, CCK1 (Homo sapiens, UniProt P32238); assay: GPCR Profiler; assay type: cell-based
T5 construct: host or cells: Chem-1 cells with promiscuous Gα15
T5 sequence (P32238 whole entry): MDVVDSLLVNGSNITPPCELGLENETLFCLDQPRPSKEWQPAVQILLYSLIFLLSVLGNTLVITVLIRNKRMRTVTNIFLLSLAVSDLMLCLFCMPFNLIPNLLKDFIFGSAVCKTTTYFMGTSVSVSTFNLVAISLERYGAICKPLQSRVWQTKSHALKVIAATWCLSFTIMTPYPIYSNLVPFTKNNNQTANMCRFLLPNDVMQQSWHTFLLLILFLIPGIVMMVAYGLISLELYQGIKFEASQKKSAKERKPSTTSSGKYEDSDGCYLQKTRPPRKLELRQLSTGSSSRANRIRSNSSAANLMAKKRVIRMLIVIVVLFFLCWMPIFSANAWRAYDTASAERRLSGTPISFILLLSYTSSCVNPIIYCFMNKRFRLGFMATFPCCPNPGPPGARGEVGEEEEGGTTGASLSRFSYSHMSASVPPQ

PKNB(M. tuberculosis) = molecular target: T6, PKNB(M. tuberculosis) (Mycobacterium tuberculosis, UniProt P9WI81); assay: KinomeScan; assay type: binding; conditions: read-out: % Control
T6 construct: purchased DiscoveRx (Fremont, CA)

ZAK = molecular target: T7, ZAK (Homo sapiens, UniProt Q9NYL2); assay: KinomeScan; assay type: binding; conditions: read-out: % Control
T7 construct: purchased DiscoveRx
T7 sequence (Q9NYL2 whole entry): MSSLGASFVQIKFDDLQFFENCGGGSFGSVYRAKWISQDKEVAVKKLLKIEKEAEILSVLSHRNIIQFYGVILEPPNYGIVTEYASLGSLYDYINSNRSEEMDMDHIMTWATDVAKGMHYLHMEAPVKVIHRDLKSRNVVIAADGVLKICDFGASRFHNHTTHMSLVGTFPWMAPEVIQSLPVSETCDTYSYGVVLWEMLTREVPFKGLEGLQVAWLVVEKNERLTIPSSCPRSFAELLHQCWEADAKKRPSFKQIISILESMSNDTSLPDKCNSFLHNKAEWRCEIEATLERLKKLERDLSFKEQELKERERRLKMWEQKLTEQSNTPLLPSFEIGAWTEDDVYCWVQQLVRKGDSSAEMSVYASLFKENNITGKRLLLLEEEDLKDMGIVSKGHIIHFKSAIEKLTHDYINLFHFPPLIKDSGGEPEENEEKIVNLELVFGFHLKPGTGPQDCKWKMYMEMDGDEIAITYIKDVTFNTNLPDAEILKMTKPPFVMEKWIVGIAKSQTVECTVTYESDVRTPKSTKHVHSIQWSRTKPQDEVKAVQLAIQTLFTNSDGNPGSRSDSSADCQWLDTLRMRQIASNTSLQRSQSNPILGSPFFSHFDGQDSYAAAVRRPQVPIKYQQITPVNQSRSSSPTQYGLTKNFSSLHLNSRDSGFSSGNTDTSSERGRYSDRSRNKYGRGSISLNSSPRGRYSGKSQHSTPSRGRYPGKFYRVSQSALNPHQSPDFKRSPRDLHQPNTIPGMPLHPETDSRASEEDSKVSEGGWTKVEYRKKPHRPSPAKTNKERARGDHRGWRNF

CDK4-cyclinD3 = molecular target: T8, CDK4-cyclinD3 (Homo sapiens, UniProt P11802); assay: KinomeScan; assay type: binding; conditions: read-out: % Control
T8 construct: purchased DiscoveRx (KinomeScan service)

GPR103 = molecular target: T9, GPR103 (Homo sapiens, UniProt Q96P65); assay: GPCR Profiler; assay type: cell-based
T9 construct: host or cells: Chem-1 cells expressing Gα15
T9 sequence (Q96P65 whole entry): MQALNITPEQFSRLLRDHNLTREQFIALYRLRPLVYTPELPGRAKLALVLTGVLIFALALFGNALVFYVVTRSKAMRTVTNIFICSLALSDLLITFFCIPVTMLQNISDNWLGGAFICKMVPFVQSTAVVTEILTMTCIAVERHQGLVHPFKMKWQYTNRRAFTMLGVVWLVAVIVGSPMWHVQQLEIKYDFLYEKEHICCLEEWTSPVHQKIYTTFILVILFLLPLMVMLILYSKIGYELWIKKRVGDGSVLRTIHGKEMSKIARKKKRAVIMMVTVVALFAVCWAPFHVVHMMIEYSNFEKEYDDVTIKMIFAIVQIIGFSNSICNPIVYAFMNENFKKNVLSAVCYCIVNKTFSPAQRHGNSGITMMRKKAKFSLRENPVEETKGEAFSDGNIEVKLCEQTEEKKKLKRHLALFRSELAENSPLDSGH

GRK4 = molecular target: T10, GRK4 (Homo sapiens, UniProt P32298); assay: KinomeScan; assay type: binding; conditions: read-out: % Control
T10 construct: purchased DiscoveRx (Fremont, CA)

EGFR(G719S) = molecular target: T11, EGFR(G719S) (Homo sapiens, UniProt P00533, G719S); assay: KinomeScan; assay type: binding; conditions: read-out: % Control
T11 construct: purchased DiscoveRx (Fremont, CA), KinomeScan service

EP2 = molecular target: T12, EP2 (Homo sapiens, UniProt P43116); assay: GPCR Profiler; assay type: cell-based
T12 construct: host or cells: Chem-1 cells expressing Gα15
T12 sequence (P43116 whole entry): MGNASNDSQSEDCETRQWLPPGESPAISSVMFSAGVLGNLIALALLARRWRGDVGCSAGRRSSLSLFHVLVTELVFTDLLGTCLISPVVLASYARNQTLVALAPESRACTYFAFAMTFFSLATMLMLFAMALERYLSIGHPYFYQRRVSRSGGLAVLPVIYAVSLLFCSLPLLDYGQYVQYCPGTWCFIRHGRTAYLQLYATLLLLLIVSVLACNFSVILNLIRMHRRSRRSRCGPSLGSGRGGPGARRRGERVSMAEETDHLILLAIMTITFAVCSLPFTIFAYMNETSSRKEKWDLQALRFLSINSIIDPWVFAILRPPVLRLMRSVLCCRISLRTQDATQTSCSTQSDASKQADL

MAPKAPK5 = molecular target: T13, MAPKAPK5 (Homo sapiens, UniProt Q8IW41); assay: KinomeScan; assay type: binding; conditions: read-out: % Control
T13 construct: purchased DiscoveRx (Fremont, CA)
T13 sequence (Q8IW41 whole entry): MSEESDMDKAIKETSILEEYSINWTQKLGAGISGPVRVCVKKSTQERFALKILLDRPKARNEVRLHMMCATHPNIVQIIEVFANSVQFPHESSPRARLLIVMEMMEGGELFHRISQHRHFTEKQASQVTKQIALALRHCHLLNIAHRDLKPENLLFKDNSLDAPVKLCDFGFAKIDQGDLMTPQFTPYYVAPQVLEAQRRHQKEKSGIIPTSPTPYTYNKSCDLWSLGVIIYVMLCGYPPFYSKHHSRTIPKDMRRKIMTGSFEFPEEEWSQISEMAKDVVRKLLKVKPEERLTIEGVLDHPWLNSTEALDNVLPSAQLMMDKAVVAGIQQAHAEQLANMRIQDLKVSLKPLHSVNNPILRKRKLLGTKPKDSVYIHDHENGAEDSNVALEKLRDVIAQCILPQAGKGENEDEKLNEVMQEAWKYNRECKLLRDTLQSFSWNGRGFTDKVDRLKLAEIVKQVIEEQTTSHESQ

CXCR3 = molecular target: T14, CXCR3 (Homo sapiens, UniProt P49682); assay: GPCR Profiler; assay type: cell-based
T14 construct: host or cells: Chem-1 cells with Gα15
T14 sequence (P49682 whole entry, species assumed): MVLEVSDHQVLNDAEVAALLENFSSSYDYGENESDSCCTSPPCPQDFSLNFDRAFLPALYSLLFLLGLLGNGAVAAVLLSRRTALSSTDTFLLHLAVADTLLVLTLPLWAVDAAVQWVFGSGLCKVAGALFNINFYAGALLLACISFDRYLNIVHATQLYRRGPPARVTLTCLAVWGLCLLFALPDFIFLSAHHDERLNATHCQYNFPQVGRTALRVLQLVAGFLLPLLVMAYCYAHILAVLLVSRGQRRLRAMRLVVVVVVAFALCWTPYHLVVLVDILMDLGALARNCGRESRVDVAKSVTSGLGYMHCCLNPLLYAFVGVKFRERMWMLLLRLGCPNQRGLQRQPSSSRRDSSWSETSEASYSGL

SMILES: CCc1ccc2c(c1)C1(NN=C(c3ccccc3)S1)C(=O)N2 (stereo not shown) [OGM2]
- Class (MDA-MB-436): Sensitive (Sensitive (LC50=2 to 10 μM))
- % Survival 2 μM OGM (MDA-MB-436; 72 hours): 52.6%
- % Survival 10 μM OGM (MDA-MB-436; 72 hours): 35.7%
- CC50 (MDA-MB-436; Homo sapiens, MDA-MB-436, 72 hours, read-out: LC50 (the source's name)): 2 to 10 µM
- Class (MCF7): Sensitive (Sensitive (LC50=2 to 10 μM))
- % Survival 2 μM OGM (MCF7; 72 hours): 50.6%
- % Survival 10 μM OGM (MCF7; 72 hours): 25.2%
- CC50 (MCF7; Homo sapiens, MCF7, 72 hours, read-out: LC50 (the source's name)): 2 to 10 µM
- Class (MDA-MB-231): Sensitive (Sensitive (LC50=2 to 10 μM))
- % Survival 2 μM OGM (MDA-MB-231; 72 hours): 70.1%
- % Survival 10 μM OGM (MDA-MB-231; 72 hours): 48.1%
- CC50 (MDA-MB-231; Homo sapiens, MDA-MB-231, 72 hours, read-out: LC50 (the source's name)): 2 to 10 µM

SMILES: CCc1ccc2c(c1)C1(NN=C(c3cccc4ccccc34)S1)C(=O)N2 (stereo not shown) [OGM1, 5-ethyl-5′-naphthalen-1-ylspiro[1H-indole-3,2′-3H-1,3,4-thiadiazole]-2-one]
- Antagonism (BB2; 10 uM): 0
- Agonism (BB2; 12.5 uM): −0.2
- remaining binding at 10 µM (EGFR(L747-T751del, Sins)): 100%
- remaining binding at 10 µM (PRKX): 98%
- remaining binding at 10 µM (KIT(A829P)): 72%
- Antagonism (CCK1; 10 uM): 1.9
- Agonism (CCK1; 12.5 uM): 0.8
- remaining binding at 10 µM (PKNB(M. tuberculosis)): 79%
- remaining binding at 10 µM (ZAK): 100%
- remaining binding at 10 µM (CDK4-cyclinD3): 76%
- Antagonism (GPR103; 10 uM): −7
- Agonism (GPR103; 12.5 uM): −0.1
- remaining binding at 10 µM (GRK4): 96%
- remaining binding at 10 µM (EGFR(G719S)): 95%
- Antagonism (EP2; 10 uM): 7
- Agonism (EP2; 12.5 uM): −0.2
- remaining binding at 10 µM (MAPKAPK5): 86%
- Antagonism (CXCR3; 10 uM): −2
- Agonism (CXCR3; 12.5 uM): 0.1
